Test results: patent US20260226068A1, “IMIDAZOTRIAZINE IL-17A MODULATORS AND USES THEREOF” (DICE ALPHA, INC., priority 2023, published 2026)

Columns and labels:
IL-17A/A = biological target: T1, IL-17A/A (Homo sapiens, UniProt Q16552); test: IL-17A/A HEK-Blue cell assay (SEAP reporter); type: cell-based; conditions: HEK-Blue IL-17A reporter cells, IL17A/A 5 ng/mL, 20 hours, SEAP read at A630; read-out: HEK-Blue IL17AA (IC50 for IL-17A/A inhibition)
T1 construct: purchased Genscript Z03228
T1 sequence (Q16552 24-155): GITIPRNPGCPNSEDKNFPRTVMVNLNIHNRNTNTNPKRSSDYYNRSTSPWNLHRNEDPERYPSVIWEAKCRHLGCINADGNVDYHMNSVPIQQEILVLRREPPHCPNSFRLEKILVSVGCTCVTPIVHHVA

IL-17A/F = biological target: T2, IL-17A/F (Homo sapiens, UniProt Q16552+Q96PD4); test: IL-17A/F HEK-Blue cell assay (SEAP reporter); type: cell-based; conditions: HEK-Blue IL-17A reporter cells, IL17A/F 5 ng/mL, 20 hours, SEAP read at A630; read-out: HEK-Blue IL17AF (IC50 for IL-17A/F inhibition)
T2 construct: purchased R&D Systems
T2 sequence (Q16552 24-155): T1 sequence (Q16552 24-155)
T2 sequence (Q96PD4 31-163): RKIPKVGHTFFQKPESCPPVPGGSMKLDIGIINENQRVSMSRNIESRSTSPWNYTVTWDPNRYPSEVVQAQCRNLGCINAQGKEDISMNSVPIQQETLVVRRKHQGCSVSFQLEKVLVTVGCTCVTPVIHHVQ

Row | SMILES | IC50 (IL-17A/A) [nM] | IC50 (IL-17A/F) [nM]
1 | CCn1nccc1C(=O)N[C@H](c1cn2nc(C[C@H]3C[C@@H](C(F)(F)F)CNC3=O)c(N(C)C)nc2n1)[C@H]1CCCC(F)(F)C1 [Compound 117, N—((S)—((S)-3,3-difluorocyclohexyl)(3-(dimethylamino)-2-(((3R,5R)-2-oxo-5-(trifluoromethyl)piperidin-3-yl)methyl)imidazo[1,2-b][1,2,4]triazin-6-yl)methyl)-1-ethyl-1H-pyrazole-5-carboxamide] | < 100 | 100 to 1000
2 | CCn1nccc1C(=O)N[C@H](c1cn2nc(C[C@H]3C[C@@H](C(F)(F)F)CNC3=O)c(N(C)C)nc2n1)[C@@H]1CCCC(F)(F)C1 [Compound 119, N—((S)—((R)-3,3-difluorocyclohexyl)(3-(dimethylamino)-2-(((3R,5R)-2-oxo-5-(trifluoromethyl)piperidin-3-yl)methyl)imidazo[1,2-b][1,2,4]triazin-6-yl)methyl)-1-ethyl-1H-pyrazole-5-carboxamide] | < 100 | 100 to 1000
3 | CCn1nccc1C(=O)N[C@H](c1cn2nc(C[C@H]3C[C@@H](C(F)(F)F)CNC3=O)c(N3CCO[C@H](C)C3)nc2n1)[C@H]1CCCC(F)(F)C1 [Compound 121, N—((S)—((S)-3,3-difluorocyclohexyl)(3-((R)-2-methylmorpholino)-2-(((3R,5R)-2-oxo-5-(trifluoromethyl)piperidin-3-yl)methyl)imidazo[1,2-b][1,2,4]triazin-6-yl)methyl)-1-ethyl-1H-pyrazole-5-carboxamide] | < 100 | < 100
4 | CCn1nccc1C(=O)N[C@H](c1cn2nc(C[C@H]3C[C@@H](C(F)(F)F)CNC3=O)c(N3CCO[C@@H](C)C3)nc2n1)[C@H]1CCCC(F)(F)C1 [Compound 123, N—((S)—((S)-3,3-difluorocyclohexyl)(3-((S)-2-methylmorpholino)-2-(((3R,5R)-2-oxo-5-(trifluoromethyl)piperidin-3-yl)methyl)imidazo[1,2-b][1,2,4]triazin-6-yl)methyl)-1-ethyl-1H-pyrazole-5-carboxamide] | < 100 | 100 to 1000
5 | CC(C)n1nccc1C(=O)N[C@H](c1cn2nc(C[C@H]3C[C@@H](C(F)(F)F)CNC3=O)c(C3CCOCC3)nc2n1)[C@@H]1CCCC(F)(F)C1 [Compound 127, N-((1S)—((R)-3,3-difluorocyclohexyl)(2-(((3R,5R)-2-oxo-5-(trifluoromethyl)piperidin-3-yl)methyl)-3-(tetrahydro-2H-pyran-4-yl)imidazo[1,2-b][1,2,4]triazin-6-yl)methyl)-1-isopropyl-1H-pyrazole-5-carboxamide] | < 100 | 100 to 1000
6 | O=C(N[C@H](c1cn2nc(C[C@H]3C[C@@H](C(F)(F)F)CNC3=O)c(C3CCOCC3)nc2n1)C1CCC(F)(F)CC1)c1nonc1C1CC1 [Compound 136, 4-cyclopropyl-N-((1S)-(4,4-difluorocyclohexyl)(2-(((3R,5R)-2-oxo-5-(trifluoromethyl)piperidin-3-yl)methyl)-3-(tetrahydro-2H-pyran-4-yl)imidazo[1,2-b][1,2,4]triazin-6-yl)methyl)-1,2,5-oxadiazole-3-carboxamide] | < 100 | > 1000
7 | CCn1nccc1C(=O)N[C@H](c1cn2nc(C[C@H]3C[C@@H](C(F)(F)F)CNC3=O)c(C3CCOCC3)nc2n1)C(C1CC1)C1CC1 [Compound 137, N-((1S)-2,2-dicyclopropyl-1-(2-(((3R,5R)-2-oxo-5-(trifluoromethyl)piperidin-3-yl)methyl)-3-(tetrahydro-2H-pyran-4-yl)imidazo[1,2-b][1,2,4]triazin-6-yl)ethyl)-1-ethyl-1H-pyrazole-5-carboxamide] | < 100 | 100 to 1000
8 | CCn1nccc1C(=O)N[C@H](c1cn2nc(C[C@H]3C[C@H](C(F)(F)F)CNC3=O)c(C3CCOCC3)nc2n1)C1CCC(F)(F)CC1 [Compound 140, N-((1S)-(4,4-difluorocyclohexyl)(2-(((3R,5S)-2-oxo-5-(trifluoromethyl)piperidin-3-yl)methyl)-3-(tetrahydro-2H-pyran-4-yl)imidazo[1,2-b][1,2,4]triazin-6-yl)methyl)-1-ethyl-1H-pyrazole-5-carboxamide] | < 100 | 100 to 1000
9 | CCn1nccc1C(=O)N[C@H](c1cn2nc(C[C@H]3C[C@@H](C(F)(F)F)CNC3=O)c(CC3CCOCC3)nc2n1)C1CCC(F)(F)CC1 [Compound 141, N-((1S)-(4,4-difluorocyclohexyl)(2-(((3R,5R)-2-oxo-5-(trifluoromethyl)piperidin-3-yl)methyl)-3-((tetrahydro-2H-pyran-4-yl)methyl)imidazo[1,2-b][1,2,4]triazin-6-yl)methyl)-1-ethyl-1H-pyrazole-5-carboxamide] | < 100 | < 100
10 | CCn1nccc1C(=O)N[C@H](c1cn2nc(C[C@H]3C[C@@H](C(F)(F)F)CNC3=O)c(CN3CCOCC3)nc2n1)C1CCC(F)(F)CC1 [Compound 142, N—((S)-(4,4-difluorocyclohexyl)(3-(morpholinomethyl)-2-(((3R,5R)-2-oxo-5-(trifluoromethyl)piperidin-3-yl)methyl)imidazo[1,2-b][1,2,4]triazin-6-yl)methyl)-1-ethyl-1H-pyrazole-5-carboxamide] | < 100 | > 1000
11 | CCn1nccc1C(=O)N[C@H](c1cn2nc(C[C@H]3C[C@@H](C(F)(F)F)CNC3=O)c(N(C)C3CC3)nc2n1)C1CCC(F)(F)CC1 [Compound 143, N—((S)-(3-(cyclopropyl(methyl)amino)-2-(((3R,5R)-2-oxo-5-(trifluoromethyl)piperidin-3-yl)methyl)imidazo[1,2-b][1,2,4]triazin-6-yl)(4,4-difluorocyclohexyl)methyl)-1-ethyl-1H-pyrazole-5-carboxamide] | < 100 | 100 to 1000
12 | CCc1nocc1C(=O)N[C@H](c1cn2nc(C[C@H]3C[C@@H](C(F)(F)F)CNC3=O)c(C3CCOCC3)nc2n1)C1CCC(F)(F)CC1 [Compound 146, N-((1S)-(4,4-difluorocyclohexyl)(2-(((3R,5R)-2-oxo-5-(trifluoromethyl)piperidin-3-yl)methyl)-3-(tetrahydro-2H-pyran-4-yl)imidazo[1,2-b][1,2,4]triazin-6-yl)methyl)-3-ethylisoxazole-4-carboxamide] | < 100 | 100 to 1000
13 | CC(C)n1nccc1C(=O)N[C@H](c1cn2nc(C[C@H]3C[C@@H](C(F)(F)F)CNC3=O)c(C3CCOCC3)nc2n1)C1CCC(F)(F)CC1 [Compound 147, N-((1S)-(4,4-difluorocyclohexyl)(2-(((3R,5R)-2-oxo-5-(trifluoromethyl)piperidin-3-yl)methyl)-3-(tetrahydro-2H-pyran-4-yl)imidazo[1,2-b][1,2,4]triazin-6-yl)methyl)-1-isopropyl-1H-pyrazole-5-carboxamide] | < 100 | 100 to 1000
14 | CCc1nonc1C(=O)N[C@H](c1cn2nc(C[C@H]3C[C@@H](C(F)(F)F)CNC3=O)c(C3CCOCC3)nc2n1)C1CCC(F)(F)CC1 [Compound 149, N-((1S)-(4,4-difluorocyclohexyl)(2-(((3R,5R)-2-oxo-5-(trifluoromethyl)piperidin-3-yl)methyl)-3-(tetrahydro-2H-pyran-4-yl)imidazo[1,2-b][1,2,4]triazin-6-yl)methyl)-4-ethyl-1,2,5-oxadiazole-3-carboxamide] | < 100 | 100 to 1000
